{"source": "patent US20200199523A1", "about": "“MEDIA FOR MICROORGANISM CULTURE AND RELATED COMPOSITIONS AND METHODS” (Massachusetts Institute of Technology, priority 2017, published 2020)", "key": {"wildtype Pichia pastoris": {"test_system": "wildtype Pichia pastoris", "test": "Batch cultivation growth (optical density, growth rate) in microtiter plates and shake flasks", "type": "cell-based, Komagataella phaffii", "details": "for Effect of supplement on growth rate: nutrient screening in defined media; for Growth rate μ in supplemented defined media: nutrient screening, supplement added to defined media; for Effect on growth rate of reducing the element's concentration by 50%: basal salts medium (FIG. 2A)", "description": "Batch cultivations were conducted at two scales: microtiter plates and shake flasks. Microtiter plates with 24 wells and pyramidal bottoms were purchased from Axygen. Each well had 10 mL total volume and cultivations used a 3 mL working volume. Plates were incubated in a Liconic LPX44 shaker at 600 rpm. Temperature was not controlled but remained at room temperature, between 21 and 24° C. […] The shake rate was set to 300 rpm and the temperature was controlled at 25° C. […]\nAll chemicals used in media formulations were purchased from Sigma. Complex media was purchased from Teknova. […] Glycerol was added at a starting concentration of 1% by volume. Media was autoclaved and filtered through a […] bottletop filter before use. PTM1 salts were added after filtration to avoid loss of trace elements through precipitation.\nBiomass was measured by optical density. Shake flask samples were measured on a Genesys 10 Bio spectrophotometer. Microtiter plate samples were measured using a Tecan Infinite M200 Pro plate reader and converted to the same scale as the spectrophotometer samples using a calibration curve. Growth rates were calculated by linear regression between the natural logarithm of the optical density and the cultivation time in hours. The regression was run on time points during the exponential growth phase unless otherwise specified."}, "[1]": {"test_system": "P. pastoris strains expressing hGH, G-CSF, IFN", "test": "Amino acid supplementation of defined media: recombinant protein expression (GXII, SDS-PAGE, ELISA)", "type": "cell-based", "details": "alone or with other amino acids, IFN (FIG. 10-13)"}, "[2]": {"test_system": "K. phaffii strain modified to express human growth hormone (hGH)", "test": "Perfusion cultivation: biomass (wet cell weight), hGH titer, productivity", "type": "cell-based", "description": "Experiments were conducted using a K. phaffii strain modified to express human growth hormone (hGH) under the control of the AOX1 promoter. For biomass accumulation, cells were grown in medium containing per liter: 40 mL glycerol, 12 g KH2PO4, 4.7 g MgSO4.7H2O, 0.36 g CaCl2.2H2O, 4.96 g (NH4)2SO4, 1.46 g L-glutamine, 1.74 g L-arginine, 3.3 mL of vitamin solution, 10 mL of lipids solution, and 4.35 mL of PTM1 salts (Amresco J241). For protein production, cells were grown in medium containing per liter: 12 g KH2PO4, 4.7 g MgSO4.7H2O, 0.36 g CaCl2.2H2O, 13.21 g (NH4)2SO4, 2.92 g L-glutamine, 3.3 mL of vitamin solution, 10 mL of lipids solution, and 4.35 mL of PTM1 salts (Amresco J241). Both media were adjusted to pH 6.5 using 5M KOH. The vitamin solution consisted of per liter: 7.5 g myo-inositol, 0.3 g thiamine HCl, 0.3 g calcium pantothenate, 0.3 g nicotinic acid, 0.3 g pyroxidine HCl, 0.015 g biotin, and 0.06 g para-aminobenzoic acid. The lipids solution consisted of per liter: 2 mg arachidonic acid, 10 mg linoleic acid, 10 mg linolenic acid, 10 mg myristic acid, 10 mg oleic acid, 10 mg palmitic acid, 10 mg stearic acid, 2.2 g Tween-80, 70 mg tocopherol acetate, and 100 g of Pluronic F-68. All chemicals were purchased from Sigma. The medium was filtered before use.\nCultivations were conducted in 0.5 L Infors HT bioreactors adapted for operation in perfusion mode. Cultures were inoculated directly from a frozen cell stock into 0.44 L of medium. Cells were grown for approximately 32 hours in perfusion mode with medium containing glycerol fed at a rate of 0.5 mL/minute. […] The cultures were induced by switching the feed to production medium containing methanol, which was also fed at 0.5 mL/minute. Bioreactor temperature was automatically controlled at 25° C. The pH was controlled at 6.5 using 5M KOH.\nFor the studies of higher methanol feed rate, two cultivations were conducted. The production medium contained 15% v/v methanol. All other fermentation conditions were as described above.\nBiomass was measured by wet cell weight. Five hundred microliters of sample were spun in a Costar Spin-X centrifuge filter tube for 10 minutes at 1500 g and the pellet was weighed. hGH concentrations in the supernatants were quantified by RPLC and by gel electrophoresis (Perkin Elmer GXII). Concentrations estimated by the two methods were highly consistent (slope=0.98, R^2=0.95).\nCell-specific productivity was calculated according to the following system of equations (Amos Lu, unpublished): […]\nwhere qp is the cell-specific productivity, μ is the growth rate, F is the perfusion rate, X is the biomass concentration, and P is the protein titer."}, "[3]": {"test_system": "P. pastoris gene expression", "test": "RNA-Seq gene expression and ssGSEA at stages of perfusion cultivation", "type": "cell-based, K. phaffii", "description": "To study gene expression under perfusion, seven cultivations were conducted (FIG. 14B). The production medium contained 1.5% v/v methanol. For four of the bioreactors (labeled 1, 3, 5A, 6A), the cultures were induced immediately after the DO spike. For the other three reactors (labeled 4, 5, 6), glycerol feed was maintained after the DO spike for 4 hours and then the cultures were induced with methanol. There were no significant differences between the biomass, hGH titers, or transcriptomic data between the two conditions (FIG. 15), so they were treated as biological replicates for RNA-Seq analysis.\nRNA was isolated from samples taken at six time points during the cultivation (FIG. 14B). Samples were taken from all reactors after one day of exponential growth on glycerol (G1) and immediately after the DO spike (G2). […]\nRNA was extracted using the Qiagen RNeasy kit (cat. no. 74104). […] All libraries were sequenced on the Illumina NextSeq platform to generate 75-nucleotide paired-end reads at a read depth of at least 3 million reads per sample. The reads were aligned to the previously reported genome sequence for this strain (Love et al., 2016) using RSEM version 1.2.15 with bowtie2 version 2.2.3. The reads were also aligned to the sequence for hGH using BWA (version 0.7.12). […]"}, "[4]": {"details": "perfusion, 15% v/v vs 1.5% v/v methanol"}}, "data": [{"compound": "N=C(N)NCCC[C@H](N)C(=O)O", "note": "[Arginine]", "values": [{"measurement": "Effect of supplement on growth rate", "setting": "wildtype Pichia pastoris", "result": "significant benefit"}, {"measurement": "Growth rate μ in supplemented defined media", "setting": "wildtype Pichia pastoris", "result": 0.202, "unit": "h⁻¹"}, {"measurement": "Effect on protein production", "setting": "[1]", "result": "increases protein production"}]}, {"compound": "S1SSSSSSS1", "note": "[sulfur]", "values": [{"measurement": "Effect on growth rate of reducing the element's concentration by 50%", "setting": "wildtype Pichia pastoris", "result": "no significant effect"}]}, {"compound": "CC(O)C(=O)O", "note": "(stereo not shown) [Lactate]", "values": [{"measurement": "Growth rate μ in supplemented defined media", "setting": "wildtype Pichia pastoris", "result": 0.186, "unit": "h⁻¹"}]}, {"compound": "OC[C@H]1O[C@H](O[C@H]2O[C@H](CO)[C@@H](O)[C@H](O)[C@H]2O)[C@H](O)[C@@H](O)[C@@H]1O", "note": "[Trehalose]", "values": [{"measurement": "Growth rate μ in supplemented defined media", "setting": "wildtype Pichia pastoris", "result": 0.193, "unit": "h⁻¹"}]}, {"compound": "C[C@H](N)C(=O)O", "note": "[Alanine]", "values": [{"measurement": "Effect of supplement on growth rate", "setting": "wildtype Pichia pastoris", "result": "did not"}, {"measurement": "Growth rate μ in supplemented defined media", "setting": "wildtype Pichia pastoris", "result": 0.195, "unit": "h⁻¹"}]}, {"compound": "NC(=O)C[C@H](N)C(=O)O", "note": "[asparagine]", "values": [{"measurement": "Effect on protein production", "setting": "[1]", "result": "increases protein production"}]}, {"compound": "CO", "note": "[methanol]", "values": [{"measurement": "Cell-specific productivity relative to low-feed case", "setting": "[2]; beginning of the cultivation (FIG. 23C)", "result": "double"}, {"measurement": "Biomass concentration", "setting": "[2]; perfusion, 15% v/v methanol, day 6 of production", "result": 530, "unit": "g/L WCW"}, {"measurement": "hGH titer", "setting": "[2]; perfusion, 15% v/v methanol, end of the cultivation", "result": 2, "unit": "g/L"}, {"measurement": "Cell density relative to low-methanol feeding experiments", "setting": "[2]; [4]", "result": "over four times greater"}, {"measurement": "hGH titers relative to lower methanol feed rate", "setting": "[2]; [4]", "result": "over six times higher"}, {"measurement": "Average growth rate", "setting": "[2]; perfusion, methanol feed rate increased by a factor of ten (15% v/v)", "result": 0.01, "unit": "h⁻¹"}, {"measurement": "Volumetric productivity relative to lower methanol feed", "setting": "[2]; perfusion, on average (FIG. 23D)", "result": "3-4 times"}, {"measurement": "Increase in expression of genes involved in methanol metabolism vs glycerol", "setting": "[3]; first 4 hours after induction", "result": 35, "unit": "fold"}, {"measurement": "Increase in expression of genes involved in methanol metabolism vs glycerol", "setting": "[3]; later in methanol feeding", "result": 100, "unit": "fold"}]}, {"compound": "NC(=O)CC[C@H](N)C(=O)O", "note": "[Glutamine]", "values": [{"measurement": "Growth rate μ in supplemented defined media", "setting": "wildtype Pichia pastoris", "result": 0.217, "unit": "h⁻¹"}, {"measurement": "Effect on protein production", "setting": "[1]", "result": "increases protein production"}]}, {"compound": "phosphate", "values": [{"measurement": "Effect on growth rate of reducing the element's concentration by 50%", "setting": "wildtype Pichia pastoris", "result": "no significant effect"}]}, {"compound": "NCCCC[C@H](N)C(=O)O", "note": "[Lysine]", "values": [{"measurement": "Effect of supplement on growth rate", "setting": "wildtype Pichia pastoris", "result": "did not"}, {"measurement": "Growth rate μ in supplemented defined media", "setting": "wildtype Pichia pastoris", "result": 0.196, "unit": "h⁻¹"}]}, {"compound": "N", "note": "[ammonium]", "values": [{"measurement": "Effect on growth rate of reducing the element's concentration by 50%", "setting": "wildtype Pichia pastoris", "result": "significantly improved the growth rate"}, {"measurement": "Concentration at which it became limiting for growth", "setting": "wildtype Pichia pastoris; basal salts medium (FIG. 2B)", "result": 12.5, "unit": "mM"}]}]}
